Source: patent publication EP4692114A1, “CALCITONIN ANALOGUE, AND DERIVATIVE THEREOF AND USE THEREOF” (Hangzhou Sciwind Biosciences Co., Ltd., priority 2023, dated 2024)
*1 amine or outer side, *2 acyl side, *3 side chain or, on linkers, in order; H or OH if unused. Where a SMILES comes first, the peptide text is derived from it. Where no end group is shown, it is not given here. The star is where a group is joined. C20 diacid = O=C(O)CCCCCCCCCCCCCCCCCCC(=O)*; γGlu = O=C(O)[C@H](CCC(=O)[*:2])N[*:1]; AEEA = NCCOCCOCC(=O)O; Inp = O=C(O)C1CCNCC1

T1: human amylin receptors (Homo sapiens, UniProt O60896+P30988)
T1 sequence (P30988 25-474): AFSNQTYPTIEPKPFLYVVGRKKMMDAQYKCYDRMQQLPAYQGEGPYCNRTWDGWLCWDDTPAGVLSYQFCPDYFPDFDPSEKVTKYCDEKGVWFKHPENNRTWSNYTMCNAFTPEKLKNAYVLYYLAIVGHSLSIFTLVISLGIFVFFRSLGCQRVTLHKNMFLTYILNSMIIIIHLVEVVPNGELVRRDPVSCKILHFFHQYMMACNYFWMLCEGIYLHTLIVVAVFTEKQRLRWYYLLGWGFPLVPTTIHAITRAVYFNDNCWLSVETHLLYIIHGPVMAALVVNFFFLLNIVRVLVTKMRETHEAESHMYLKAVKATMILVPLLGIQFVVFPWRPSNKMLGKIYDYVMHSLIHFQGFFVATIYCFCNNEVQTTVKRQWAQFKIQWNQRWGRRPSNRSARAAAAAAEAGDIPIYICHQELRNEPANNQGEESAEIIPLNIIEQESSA
T1 sequence (O60896 24-148 partner): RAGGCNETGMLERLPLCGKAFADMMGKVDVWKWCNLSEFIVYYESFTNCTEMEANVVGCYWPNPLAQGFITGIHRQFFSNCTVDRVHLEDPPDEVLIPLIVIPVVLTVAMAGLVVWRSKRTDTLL

T2: human amylin receptor (AMY3) on CHO-K1/Gal5/AMY3 cells (human, UniProt P30988 25-474; O60896 24-148)
T2 sequence (looked up) 1: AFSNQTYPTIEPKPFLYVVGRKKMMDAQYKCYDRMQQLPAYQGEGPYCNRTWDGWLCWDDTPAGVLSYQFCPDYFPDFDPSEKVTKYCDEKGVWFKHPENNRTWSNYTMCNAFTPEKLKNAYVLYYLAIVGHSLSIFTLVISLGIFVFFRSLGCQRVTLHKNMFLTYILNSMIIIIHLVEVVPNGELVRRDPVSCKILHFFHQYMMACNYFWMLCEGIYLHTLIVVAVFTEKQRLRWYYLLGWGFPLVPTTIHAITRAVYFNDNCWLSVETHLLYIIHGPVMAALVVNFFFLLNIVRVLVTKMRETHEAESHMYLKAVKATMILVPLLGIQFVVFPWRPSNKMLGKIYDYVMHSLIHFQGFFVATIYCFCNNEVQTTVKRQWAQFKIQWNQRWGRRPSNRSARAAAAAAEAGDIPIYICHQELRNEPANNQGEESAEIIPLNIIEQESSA
T2 sequence (looked up) 2: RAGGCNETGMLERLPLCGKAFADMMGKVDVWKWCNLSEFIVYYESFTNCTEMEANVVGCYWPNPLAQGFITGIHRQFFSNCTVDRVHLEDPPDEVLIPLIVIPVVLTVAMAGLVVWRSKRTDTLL


Each molecule was assayed against T1, human amylin receptors (assay: Luciferase assay of amylin (amylin receptor/CRE-luc cell line)). Settings: stably transfected amylin receptor/CRE-luc CHO cells (CHO-K1/Gal5/AMY3), 24 hours incubation, luciferase readout.
Assay type: cell-based

Row | Molecule | EC50
1 | CC(C)C[C@H](NC(=O)[C@H](CCCNC(=N)N)NC(=O)CNC(=O)[C@H](CC(C)C)NC(=O)[C@@H](NC(=O)[C@H](C)NC(=O)[C@@H](NC(=O)[C@H](CO)NC(=O)[C@H](CC(C)C)NC(=O)[C@H](CCC(N)=O)NC(=O)[C@H](CO)NC(=O)[C@H](C)NC(=O)[C@H](CC(=O)O)NC(=O)CCCCCCCCCCCCCCCCCCC(=O)O)[C@@H](C)O)C(C)C)C(=O)N[C@@H](CO)C(=O)N[C@@H](CCC(=O)O)C(=O)N[C@@H](CCC(=O)O)C(=O)N[C@@H](CC(C)C)C(=O)N[C@@H](Cc1c[nH]cn1)C(=O)N[C@@H](CCCNC(=N)N)C(=O)N[C@@H](CC(C)C)C(=O)N[C@@H](CCC(N)=O)C(=O)N[C@@H](CC(=O)O)C(=O)N[C@@H](Cc1ccc(O)cc1)C(=O)N1CCC[C@H]1C(=O)N[C@@H](CCCNC(=N)N)C(=O)N[C@H](C(=O)N[C@@H](CC(=O)O)C(=O)N[C@H](C(=O)NCC(=O)N[C@@H](CO)C(=O)NCC(=O)N[C@@H](CO)C(=O)N1CCC[C@H]1C(N)=O)C(C)C)[C@@H](C)O [M54] ({C20 diacid}-DASQLSTAVLGRLSEELHRLQDYPRTDVGSGSP-NH2) | 0.017 nM
2 | CC(C)C[C@H](NC(=O)[C@H](CCCNC(=N)N)NC(=O)CNC(=O)[C@H](CC(C)C)NC(=O)[C@@H](NC(=O)[C@H](C)NC(=O)[C@@H](NC(=O)[C@H](CO)NC(=O)[C@H](CC(C)C)NC(=O)[C@H](CCC(N)=O)NC(=O)[C@H](CO)NC(=O)[C@H](C)NC(=O)C1CCN(C(=O)CCCCCCCCCCCCCCCCCCC(=O)O)CC1)[C@@H](C)O)C(C)C)C(=O)N[C@@H](CO)C(=O)N[C@@H](CCC(=O)O)C(=O)N[C@@H](CCC(=O)O)C(=O)N[C@@H](CC(C)C)C(=O)N[C@@H](Cc1c[nH]cn1)C(=O)N[C@@H](CCCNC(=N)N)C(=O)N[C@@H](CC(C)C)C(=O)N[C@@H](CCC(N)=O)C(=O)N[C@@H](CC(=O)O)C(=O)N[C@@H](Cc1ccc(O)cc1)C(=O)N1CCC[C@H]1C(=O)N[C@@H](CCCNC(=N)N)C(=O)N[C@H](C(=O)N[C@@H](CC(=O)O)C(=O)N[C@H](C(=O)NCC(=O)N[C@@H](CO)C(=O)NCC(=O)N[C@@H](CO)C(=O)N1CCC[C@H]1C(N)=O)C(C)C)[C@@H](C)O [M56] ({C20 diacid-Inp}-ASQLSTAVLGRLSEELHRLQDYPRTDVGSGSP-NH2) | 0.017 nM
3 | CC(C)C[C@H](NC(=O)[C@H](CCCNC(=N)N)NC(=O)CNC(=O)[C@H](CC(C)C)NC(=O)[C@@H](NC(=O)[C@H](C)NC(=O)[C@@H](NC(=O)[C@H](CO)NC(=O)[C@H](CC(C)C)NC(=O)[C@H](CCC(N)=O)NC(=O)[C@H](CO)NC(=O)[C@H](C)NC(=O)COCCOCCNC(=O)COCCOCCNC(=O)CC[C@H](NC(=O)CCCCCCCCCCCCCCCCCCC(=O)O)C(=O)O)[C@@H](C)O)C(C)C)C(=O)N[C@@H](CO)C(=O)N[C@@H](CCC(=O)O)C(=O)N[C@@H](CCC(=O)O)C(=O)N[C@@H](CC(C)C)C(=O)N[C@@H](Cc1c[nH]cn1)C(=O)N[C@@H](CCCNC(=N)N)C(=O)N[C@@H](CC(C)C)C(=O)N[C@@H](CCC(N)=O)C(=O)N[C@@H](CC(=O)O)C(=O)N[C@@H](Cc1ccc(O)cc1)C(=O)N1CCC[C@H]1C(=O)N[C@@H](CCCNC(=N)N)C(=O)N[C@H](C(=O)N[C@@H](CC(=O)O)C(=O)N[C@H](C(=O)NCC(=O)N[C@@H](CO)C(=O)NCC(=O)N[C@@H](CO)C(=O)N1CCC[C@H]1C(N)=O)C(C)C)[C@@H](C)O [M57] ({C20 diacid-γGlu-AEEA-AEEA}-ASQLSTAVLGRLSEELHRLQDYPRTDVGSGSP-NH2) | 0.017 nM

These molecules were tested against T2, human amylin receptor (AMY3) on … (assay: cell-based or functional assay). Settings: not given.

Row | Molecule | EC50/nM, CRE-luciferase in amylin receptor/CRE-luc CHO cells
4 | {C20 diacid}-DASQLSTAVLGRLSEELHRLQDYPRTDVGSGSP-NH2 (SMILES CC(C)C[C@H](NC(=O)[C@H](CCCNC(=N)N)NC(=O)CNC(=O)[C@H](CC(C)C)NC(=O)[C@@H](NC(=O)[C@H](C)NC(=O)[C@@H](NC(=O)[C@H](CO)NC(=O)[C@H](CC(C)C)NC(=O)[C@H](CCC(N)=O)NC(=O)[C@H](CO)NC(=O)[C@H](C)NC(=O)[C@H](CC(=O)O)NC(=O)CCCCCCCCCCCCCCCCCCC(=O)O)[C@@H](C)O)C(C)C)C(=O)N[C@@H](CO)C(=O)N[C@@H](CCC(=O)O)C(=O)N[C@@H](CCC(=O)O)C(=O)N[C@@H](CC(C)C)C(=O)N[C@@H](Cc1c[nH]cn1)C(=O)N[C@@H](CCCNC(=N)N)C(=O)N[C@@H](CC(C)C)C(=O)N[C@@H](CCC(N)=O)C(=O)N[C@@H](CC(=O)O)C(=O)N[C@@H](Cc1ccc(O)cc1)C(=O)N1CCC[C@H]1C(=O)N[C@@H](CCCNC(=N)N)C(=O)N[C@H](C(=O)N[C@@H](CC(=O)O)C(=O)N[C@H](C(=O)NCC(=O)N[C@@H](CO)C(=O)NCC(=O)N[C@@H](CO)C(=O)N1CCC[C@H]1C(N)=O)C(C)C)[C@@H](C)O) [calcitonin derivative M54] | 0.017 nM
5 | ASQLSTAVLGRLSQELHRLQDYPRTDVGSGSP-NH2 [calcitonin analogue M5] | 0.033 nM
